Experimental data as given in patent US20020082180A1, “Fabric cleaning system” (Unilever Home & Personal Care USA, Division of Conopco, Inc., priority 2000, published 2002).

Assay: log P, partitioning coefficient of the fluorescer between octanol and water
Assay type: physicochemical
Settings: octanol/water at ambient temperature
Source text: We have found the fluorescers of the present invention to be very effective when used with carbon dioxide whilst the fluorescers are readily soluble in carbon dioxide without the need for surfactants. A preferable selection of fluorescers can be described by their log P value. Log P being the partitioning coefficient of the fluorescer between octanol and water at ambient temperature, whereby P is the concentration of the fluorescer in octanol divided by the concentration of fluorescer in water. (Leo et al. Chem Rev 1971, 71, 525). If appropriate, the log P is determined in the presence of sodium and/or chloride as counterions. Accordingly, a preferred group of fluorescer has a log P of at least 2, more preferably at least 2.5. In many cases, the log P may also be estimated using specially designed programs, also described as clog P or calculated log P. However, if in certain cases these programs are inappropriate, the real log P should be measured.

Compound: c1ccc2oc(-c3ccc(-c4nc5ccccc5o4)s3)nc2c1 [Tinopal™ SOP]
- log P: > 2.5
